Source: the supplement of paper PMC10290057
Where a name gives a salt, the structure may show the parent alone.

Tests used:
HCT116 [1] = experiment: AC50 cell viability (CellTiter-Glo); higher = less potent; conditions: 48 h
HCT116 [2] = experiment: efficacy (fitted maximal change in viability relative to DMSO control); higher = less cytotoxic (negative = loss of viability); conditions: 48 h
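Wherever AC50 cell viability (CellTiter-Glo) is given: HCT116 colorectal carcinoma cells screened at five concentrations per compound, luminescent viability scaled between DMSO wells and empty wells on each plate, curves fitted per compound.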
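Wherever efficacy (fitted maximal change in viability relative to DMSO control) is given: Luminescence-based viability readout, five doses per compound, normalized against on-plate DMSO and empty-well controls, followed by dose-response curve fitting for every drug.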

Row | Structure (SMILES) | AC50 cell viability (HCT116 [1]) [µM] | efficacy (HCT116 [2]) [%]
1 | Cn1cc(-c2ccc(F)c(C(F)(F)F)c2)nc1C1CCN(c2ncnc3[nH]ncc23)CC1 | 16.6 | -40.4
2 | COc1cc2nc(-c3ccc(N4CCN(C)CC4)cc3)nc(NCCN3CCOCC3)c2cc1OC | 2.95 | -87.2
3 | Clc1ccc(Cn2c(CN3CCCC3)nc3ccccc32)cc1 [Clemizole hydrochloride] | 23.5 | -93.1
4 | COC1=CC(=C2C(=O)N\C(=N/C2=C1)C3=CC(=C(OCCO)C(=C3)C)C)OC [RVX-208] | 18.6 | -41.5
5 | CC[C@]1(O)C[C@H]2CN(CCC3=C([NH]C4=C3C=CC=C4)[C@@](C2)(C(=O)OC)C5=C(OC)C=C6N(C)[C@H]7[C@](O)([C@H](OC(C)=O)[C@]8(CC)\C=C/CN9CC[C@]7([C@H]89)C6=C5)C(=O)OC)C1 [VINBLASTINE SULFATE] | 0.372 | -53.2
6 | Cc1nc(N)sc1-c1ccnc(Nc2ccc(N3CCOCC3)cc2)n1 [CYC-116] | 2.09 | -61
7 | Cc1ccc([S+](=O)([O-])Nc2cc(-c3ccc(C#N)s3)ccc2C)cc1 | 0.0372 | -59.9
8 | O=C(CCCCCCNC(=O)c1cnc(N(c2ccccc2)c2ccccc2)nc1)NO [ACY-1215] | 7.42 | -93.5
9 | O=C(Nc1cccc(Br)c1)c1cccc([S+](=O)([O-])N2CCCCCC2)c1 [Ak-7] | 14.8 | -59.7
10 | CCC1=C[C@@H]2CN(C1)Cc1c([nH]c3ccccc13)[C@@](C(=O)OC)(c1cc3c(cc1OC)N(C)[C@H]1[C@@](O)(C(=O)OC)[C@H](OC(C)=O)[C@]4(CC)C=CCN5CC[C@]31[C@@H]54)C2 [Vinorelbine (ditartrate)] | 0.129 | -60.3
11 | CC1CCN(c2cc(N3CCN(C)CC3)ccc2NC(=O)c2cc(C#N)c[nH]2)CC1 [c-FMS Inhibitor] | 7.42 | -34
12 | Nc1ncnc(Nc2ccc(OCc3ccccc3)c(Cl)c2)c1/C=N/OCCN1CCOCC1 | 26.3 | -98
13 | CCN1C(=O)\C(=C/C2=C1N=C(NC3=CC=C(N4CCNCC4)C(=C3)F)N=C2)C5=CC=C(Cl)C=C5Cl [FRAX-486] | 2.63 | -32.6
14 | N#Cc1ccc(COC[C@H]2O[C@@H](n3c(NCc4ccc(Cl)c(Cl)c4)nc4c(N)ncnc43)[C@H](O)[C@@H]2O)cc1 | 16.6 | -99.6
15 | CC(C)C[C@H](NC(=O)[C@H](Cc1ccccc1)NC(=O)c1cnccn1)B(O)O [Bortezomib] | 0.0132 | -94.1
16 | Clc1ccc(C(Cn2ccnc2)OCc2ccc(Sc3ccccc3)cc2)c(Cl)c1 (stereo not given) [Fenticonazole nitrate] | 20.9 | -90.5
17 | c1ccc(-c2cc(CCC3CCNCC3)c3ccccc3n2)cc1 [Pipequaline] | 16.6 | -108
18 | CN(Cc1ccc(/C=C/C(=O)NO)cc1)CC12CC3CC(CC(C3)C1)C2 [Martinostat] | 0.263 | -89.7
19 | OC[C@H]1O[C@H](C[C@@H]1O)N2\C=C(\I)C(=O)NC2=O [Idoxuridine] | 16.6 | -38.3
20 | CC(C)c1ccccc1Cc1cc(C(=O)Nc2ccc([S+](=O)([O-])c3ccccc3C(C)(C)C)cc2)c(O)c(O)c1O [TW-37] | 20.9 | -90.9
21 | CC(C)n1c(/C=C/[C@H](O)C[C@H](O)CC(=O)O)c(-c2ccc(F)cc2)c2ccccc21 [Fluvastatin] | 9.34 | -71.8
22 | CCc1cncnc1N1CCN(Cc2nc3cc(C(F)(F)F)ccc3[nH]2)CC1 | 14.8 | -42.6
23 | OCCN1CCN(CCCN2c3ccccc3Sc3ccc(C(F)(F)F)cc32)CC1 [Fluphenazine hydrochloride] | 7.42 | -94.5
24 | CCc1ccc(C(=O)Nc2cc(CN3CCN(C)CC3)cc(C(F)(F)F)c2)cc1C#Cc1cnc2ccnn2c1 [PRP003-013] | 4.68 | -100
25 | CNC1CCC(N(Cc2cccc(-c3ccncc3)c2)C(=O)c2sc3c(F)ccc(F)c3c2Cl)CC1 (stereo not given) [Hh-Ag1.5] | 13.2 | -115
26 | COc1cc(C(=O)N2CC[C@@H](O)[C@@H](N)C2)cc2nc(-c3cc4ccccc4n3CC3CC3)n(C)c12 [GSK-484] | 23.5 | -94.1
27 | NC1CCCN(c2c(/C=C3\SC(=O)NC3=O)cccc2-c2ccccc2)C1 (stereo not given) [AZD-1208] | 23.5 | -67.1
28 | COc1ccccc1N1CCN(CCN(C(=O)C2CCCCC2)c2ccccn2)CC1 | 13.2 | -31.7

Row | Structure (SMILES) | AC50 cell viability (HCT116 [1]) [µM] | efficacy (HCT116 [2]) [%]
29 | COC/1=C/C=C2\C(=C/C1=O)[C@H](CCC3=CC(=C(OC)C(=C23)OC)OC)NC(C)=O [Colchicine] | 0.0661 | -59.9
30 | CCN1CCN(Cc2ccc(Nc3ncc(F)c(-c4cc(F)c5nc(C)n(C(C)C)c5c4)n3)nc2)CC1 [Abemaciclib] | 4.17 | -109
31 | COC(=O)Nc1ccc(-c2nc(N3CCOCC3)c3cnn(C4CCN(C(=O)OC)CC4)c3n2)cc1 [WYE-354] | 1.32 | -56.3
32 | CCN(CC)CCOc1ccc(/C(=C(\Cl)c2ccccc2)c2ccccc2)cc1 [Clomifene citrate] | 8.33 | -90.7
33 | CC(C)C[C@H](NC(=O)[C@H](CCc1ccccc1)NC(=O)CN1CCOCC1)C(=O)N[C@@H](Cc1ccccc1)C(=O)N[C@@H](CC(C)C)C(=O)[C@@]1(C)CO1 [Carfilzomib] | 0.0118 | -93.6
34 | COc1cc2c(Nc3ccc(Br)cc3F)ncnc2cc1OCC1CCN(C)CC1 [Vandetanib] | 14.8 | -108
35 | O=C(Nc1cnccc1Cl)N1CCN(Cc2ccc3c(c2)OC(F)(F)O3)CC1 | 14.8 | -56.5
36 | Cc1cc(C(=O)Nc2cc(Nc3ccc4c(/C=C/c5ccccn5)[nH]nc4c3)ccc2F)n(C)n1 | 10.5 | -99.1
37 | CO[C@H]1C[C@@H]2CC[C@@H](C)[C@@](O)(O2)C(=O)C(=O)N2CCCC[C@H]2C(=O)O[C@H]([C@H](C)C[C@@H]2CC[C@@H](OP(C)(C)=O)[C@H](OC)C2)CC(=O)[C@H](C)/C=C(\C)[C@@H](O)[C@@H](OC)C(=O)[C@H](C)C[C@H](C)/C=C/C=C/C=C/1C [Ridaforolimus] | 20.9 | -48.8
38 | COC(=O)C1C2CC3c4[nH]c5cc(OC)ccc5c4CCN3CC2CC(OC(=O)c2cc(OC)c(OC)c(OC)c2)C1OC (stereo not given) [Reserpine] | 20.9 | -68.3
39 | C[C@H]1[C@H](OC(=O)CCC(=O)O)O[C@@H]2O[C@@]3(C)CC[C@H]4[C@H](C)CC[C@@H]1[C@@]24OO3 [Artesunate] | 4.17 | -62.6
40 | O=C(CCCCCCC(=O)N/N=C/c1ccc(N(c2ccccc2)c2ccccc2)cc1)NO [WT-161] | 2.09 | -86.8
41 | COc1ccc2nc3[nH]nc(C)c3c(NCCOCCO)c2c1 | 18.6 | -82.9
42 | Cc1ncc(NC(=O)c2ccc(CN3CCN(C)CC3)c(C(F)(F)F)c2)cc1Nc1nccc(-c2cccnc2)n1 [Flumatinib mesylate] | 18.6 | -95.8
43 | Cc1cc(OCc2nnc(SC3CCCC3)n2-c2cccnc2)ccc1-c1ccc([S+](C)(=O)[O-])cc1 [NMS-873] | 1.48 | -104
44 | Nc1ncnc2c1c(-c1cnc3[nH]ccc3c1)nn2C1CCCC1 [PP-121] | 2.63 | -86.5
45 | CC[C@@H]1[C@H](F)C(=O)N[C@@H]1COc1nccc2cc(C(N)=O)c(OC)cc12 | 13.2 | -66.9
46 | CCCC\1=C(/CNC(=O)C2=CC(=CC3=C2C=N[N]3C(C)C)C4=CC(=NC=C4)N5CCN(C)CC5)C(=O)NC(=C1)\C [GSK-343] | 23.5 | -101
47 | CNC(=O)c1cccc2cc(Oc3ccnc4cc(OCC5(N)CC5)c(OC)cc34)ccc12 [Lucitanib] | 14.8 | -96.6
48 | CCOC(=O)N1c2ccc(C(F)(F)F)cc2[C@@H](N(Cc2cc(C(F)(F)F)cc(C(F)(F)F)c2)C(=O)OC)C[C@H]1CC [Torcetrapib] | 8.33 | -45.4
49 | CCCCc1oc2ccc(N[S+](C)(=O)[O-])cc2c1C(=O)c1ccc(OCCCN(CCCC)CCCC)cc1 [Dronedarone hydrochloride] | 8.33 | -102
50 | N[S+](=O)([O-])c1cccc2c1C(=O)c1cccc(O)c1C2=O [LLL-12] | 0.833 | -88
51 | C#Cc1cccc(Nc2ncnc3cc(OCCOC)c(OCCOC)cc23)c1 [Erlotinib] | 9.34 | -47.1
52 | Cc1c[nH]c2nc(Nc3ccc(N4CCN(C)CC4)c(F)c3)nc(-c3cccc(CC#N)c3)c12 [SGI-7079] | 0.525 | -83.9
53 | CCCCCCCOc1ccc(CCC(N)(CO)CO)cc1C(F)(F)F [Amiselimod hydrochloride] | 10.5 | -96.7
54 | CCc1ccc(OCc2ccccc2C(=O)Nc2ccc3nc(C)cc(N)c3c2)cc1 [JTC-801] | 3.32 | -94.1
55 | CC(C)(O)CNc1ncc(-c2ccnc(Nc3ccncc3)n2)c(CC2CC2)n1 [VPS34 Inhibitor 1 (Compound 19, PIK-III analogue)] | 13.2 | -109
